Here are results for 57 molecules from patent US20250064789A1, “KETOAMIDE DERIVATIVES AND PHARMACEUTICAL USES THEREOF” (priority 2022, published 2025).

Structures are written as SMILES. Like-named read-outs stand apart in the source and are kept apart here.

The assay concerns the target recombinant SARS-CoV-2 M^pro (Severe acute respiratory syndrome coronavirus 2 (2019-nCoV) (SARS-CoV-2), UniProt P0DTD1). Kind of assay: Inhibition of SARS-CoV-2 M^pro enzyme activity (fluorescent substrate assay). Type of assay: biochemical. To be noted: inhibition of SARS-CoV-2 M^pro enzyme activity, read-out: IC50.

For orientation: IC50 means the midpoint of a concentration-inhibition curve.

In the case of `O=C(NCc1ccccn1)C(=O)[C@@H](Cc1ccccc1)NC(=O)[C@H]1CC2CCCCC2N1C(=O)NCC1CC(F)(F)C1` (stereo partly drawn) [Compound 308], under “values in nM”, the IC50 came to 13.9 ± 1.2 nM.
For the molecule `O=C(NCc1ccccn1)C(=O)[C@@H](Cc1ccccc1)NC(=O)[C@H]1CC2CCCCC2N1C(=O)N1CCC(F)(F)CC1` (stereo partly drawn) [Compound 309], the half-inhibitory concentration (IC50) (values in nM) amounted to 19.4 nM.
For `O=C(NCc1ccccn1)C(=O)[C@@H](Cc1ccccc1)NC(=O)[C@H]1Cc2ccccc2CN1C(=O)NCC1CC(F)(F)C1` [Compound 310], the IC50 (values in nM) came to 12.4 nM.
On to `O=C(NCc1ccccn1)C(=O)[C@@H](Cc1ccccc1)NC(=O)[C@H]1Cc2ccccc2CN1C(=O)N1CCC(F)(F)CC1` [Compound 311], for which the IC50 (values in nM) was determined as 16.7 ± 0.6 nM.
`O=C(NCc1ccccn1)C(=O)[C@@H](Cc1ccccc1)NC(=O)[C@H]1Cc2ccccc2CN1C(=O)OC1CCC(F)(F)CC1` [Compound 312]: the concentration for half-maximal inhibition (IC50) (values in nM) amounted to 14.5 ± 0.1 nM.
Regarding `O=C(NC1(C(=O)N[C@H](Cc2ccccc2)C(=O)C(=O)NCc2ccccn2)CCC1)OCC1CCC(F)(F)CC1` [Compound 313, (4,4-difluorocyclohexyl)methyl(R)-(1-((3,4-dioxo-1-phenyl-4-((pyridin-2-ylmethyl)amino)butan-2-yl)carbamoyl)cyclobutyl) carbamate], the IC50 (values in nM) stood at 16 ± 2 nM.
Turning to `O=C(NC1(C(=O)N[C@H](Cc2ccccc2)C(=O)C(=O)NCc2ccccn2)CCC1)OC1CCC(F)(F)CC1` [Compound 314], where the note is “values in nM”, the IC50 is 12.4 ± 0.3 nM.
On the same count and under the same terms, to `O=C(NC1(C(=O)N[C@H](Cc2ccccc2)C(=O)C(=O)NCc2ccccn2)CCC1)O[C@H]1CO[C@H]2OCC[C@H]21` [Compound 315] belongs 20.2 ± 3.3 nM.
For `C[C@@H](NC(=O)OCc1ccccc1)C(=O)N[C@H](Cc1ccccc1)C(=O)C(=O)NCc1ccccn1` [Compound 316], the IC50 (values in nM) came out at 15.9 ± 0.4 nM.
Consider `O=C(NCc1ccccn1)C(=O)[C@@H](Cc1ccccc1)NC(=O)C1(C(=O)NC2CCC(F)(F)CC2)CC1` [Compound 319], for which the IC50 (values in nM) was found to be 37.1 ± 2.9 nM.
`O=C(NCc1ccccn1)C(=O)[C@@H](Cc1ccccc1)NC(=O)C1(C(=O)NCC2CCC(F)(F)CC2)CC1` [Compound 320]: the IC50 (values in nM) came to 16.7 ± 0.3 nM.
As for `O=C(NCc1ccccn1)C(=O)[C@@H](Cc1ccccc1)NC(=O)C1(C(=O)NCc2cnccn2)CC1` [Compound 321], for the setting “values in nM”, the IC50 is 166 ± 2.6 nM.
Same read-out and setting: the value for `O=C(NCc1ccccn1)C(=O)[C@@H](Cc1ccccc1)NC(=O)C1(C(=O)Nc2ccc(F)cc2)CC1` [Compound 322] was 125 ± 6 nM; that for `CC(C)(C(=O)NC1CCC(F)(F)CC1)C(=O)N[C@H](Cc1ccccc1)C(=O)C(=O)NCc1ccccn1` [Compound 323] was 30.7 ± 1.9 nM; that for `CC(C)(C(=O)N[C@H](Cc1ccccc1)C(=O)C(=O)NCc1ccccn1)C(=O)N1CCC(C(F)(F)F)CC1` [Compound 325] was 177 ± 2.5 nM.
For the molecule `CC(C)(C(=O)N[C@H](Cc1ccccc1)C(=O)C(=O)NCc1ccccn1)n1cc(-c2ccccc2)cn1` [Compound 326, (R)-3-(2-methyl-2-(4-phenyl-1H-pyrazol-1-yl)propionamido)-2-oxo-4-phenyl-N-(pyridin-2-ylmethyl)butyramide], the half-maximal inhibitory concentration (IC50) (values in nM) came out at 20.7 ± 0.5 nM.
The same measure, in the same setting: the value for `CC(C)(C(=O)N[C@H](Cc1ccccc1)C(=O)C(=O)NCc1ccccn1)n1cc(Br)cn1` [Compound 327] was 245 ± 2.7 nM.
As for `CC(C)(C(=O)N[C@H](Cc1ccccc1)C(=O)C(=O)NCc1ccccn1)n1cc(-c2ccccc2F)cn1` [Compound 328], where the note is “values in nM”, the IC50 was 31.7 ± 0.1 nM.
On the same count and under the same terms, to `CC(C)(C(=O)N[C@H](Cc1ccccc1)C(=O)C(=O)NCc1ccccn1)n1cc(-c2cccc(F)c2)cn1` [Compound 329] belongs 19.4 ± 1.8 nM; to `CC(C)(C(=O)N[C@H](Cc1ccccc1)C(=O)C(=O)NCc1ccccn1)n1cc(-c2ccc(F)cc2)cn1` [Compound 330], 195 ± 14.5 nM.
Regarding `C[C@@H](NS(=O)(=O)c1ccc(F)cc1)C(=O)N[C@H](Cc1ccccc1)C(=O)C(=O)NCc1ccccn1` [Compound 331, (R)-3-((R)-2-((4-fluorophenyl)sulfonamido)propionamido)-2-oxo-4-phenyl-N-(pyridin-2-ylmethyl)butyramide], under “values in nM”, the 50% inhibitory concentration (IC50) worked out at 101 ± 2.8 nM.
On the same count and under the same terms, the value for `C[C@@H](NS(=O)(=O)c1cccnc1)C(=O)N[C@H](Cc1ccccc1)C(=O)C(=O)NCc1ccccn1` [Compound 332] was 888.3 ± 1.2 nM.
For `C[C@@H](NC(=O)C1CCC(F)(F)CC1)C(=O)NCC(=O)C(=O)NCc1ccccn1` [Compound 334], the IC50 (values given in μM) is above 5000 nM.
As for `C[C@@H](NC(=O)C1CCC(F)(F)CC1)C(=O)N[C@H](Cc1ccccc1)C(=O)C(=O)NCc1ccc(F)cn1` [Compound 336], the IC50 (values in nM) is 15 ± 0.8 nM.
As to `C[C@@H](NC(=O)C1CCC(F)(F)CC1)C(=O)N[C@H](Cc1ccccc1)C(=O)C(=O)NCc1ncccn1` [Compound 337], where the note is “values in nM”, the IC50 stood at 87.9 ± 14.6 nM.
For `C[C@@H](NC(=O)C1CCC(F)(F)CC1)C(=O)N[C@H](Cc1ccccc1)C(=O)C(=O)NCc1ccncn1` [Compound 338], the IC50 (values in nM) came to 20 ± 0.8 nM.
As to `COc1cccnc1CNC(=O)C(=O)[C@@H](Cc1ccccc1)NC(=O)[C@@H](C)NC(=O)C1CCC(F)(F)CC1` [Compound 339], the IC50 (values given in μM) is 6130 ± 220 nM.
With `Cc1cccnc1CNC(=O)C(=O)[C@@H](Cc1ccccc1)NC(=O)[C@@H](C)NC(=O)C1CCC(F)(F)CC1` [Compound 340], the IC50 (values in nM) turned out to be 76.2 ± 1.7 nM.
In the case of `C[C@@H](NC(=O)C1CCC(F)(F)CC1)C(=O)N[C@H](Cc1ccccc1)C(=O)C(=O)NCc1ncccc1Cl` [Compound 341], the IC50 (values given in μM) was 11500 ± 3790 nM.
Turning to `COc1ccnc(CNC(=O)C(=O)[C@@H](Cc2ccccc2)NC(=O)[C@@H](C)NC(=O)C2CCC(F)(F)CC2)c1` [Compound 342], for the setting “values in nM”, the concentration for half-maximal inhibition (IC50) turned out to be 22.2 ± 0.2 nM.
Same read-out and setting: to `C[C@@H](NC(=O)C1CCC(F)(F)CC1)C(=O)N[C@H](Cc1ccccc1)C(=O)C(=O)NCc1cc(Cl)ccn1` [Compound 343] belongs 18.3 ± 0.7 nM; to `C[C@@H](NC(=O)C1CCC(F)(F)CC1)C(=O)N[C@H](Cc1ccccc1)C(=O)C(=O)NCc1ccc(C(F)(F)F)cn1` [Compound 344], 857.2 ± 3.1 nM.
Regarding `COc1ccc(CNC(=O)C(=O)[C@@H](Cc2ccccc2)NC(=O)[C@@H](C)NC(=O)C2CCC(F)(F)CC2)nc1` [Compound 345], where the note is “values in nM”, the IC50 was found to be 60.9 ± 4.7 nM.
In the case of `C[C@@H](NC(=O)C1CCC(F)(F)CC1)C(=O)N[C@H](Cc1ccccc1)C(=O)C(=O)NCc1c[nH]cn1` [Compound 346], the IC50 (values given in μM) is above 2500 nM.
Turning to `C[C@@H](NC(=O)C1CCC(F)(F)CC1)C(=O)N[C@H](Cc1ccccc1)C(=O)C(=O)NCc1nccn1C` [Compound 347], the half-inhibitory concentration (IC50) (values given in μM) was above 2500 nM.
In the case of `C[C@@H](NC(=O)C1CCC(F)(F)CC1)C(=O)N[C@H](Cc1ccccc1)C(=O)C(=O)NCc1cocn1` [Compound 350], the IC50 (values in nM) was 42 ± 3.7 nM.
Regarding `Cc1nc(CNC(=O)C(=O)[C@@H](Cc2ccccc2)NC(=O)[C@@H](C)NC(=O)C2CCC(F)(F)CC2)cs1` [Compound 351], where the note is “values given in μM”, the half-inhibitory concentration (IC50) amounted to 1160 ± 320 nM.
Consider `C[C@@H](NC(=O)C1CCC(F)(F)CC1)C(=O)N[C@H](Cc1ccccc1)C(=O)C(=O)NCc1ncco1` [Compound 352], for which the IC50 (values given in μM) was found to be 2500 ± 290 nM.
As to `C[C@@H](NC(=O)C1CCC(F)(F)CC1)C(=O)N[C@H](Cc1ccccc1)C(=O)C(=O)NCc1ccon1` [Compound 353], where the note is “values in nM”, the IC50 came to 845.8 ± 2.1 nM.
`C[C@@H](NC(=O)C1CCC(F)(F)CC1)C(=O)N[C@H](Cc1ccccc1)C(=O)C(=O)NCc1nc2ccccc2s1` [Compound 355]: the IC50 (values given in μM) was above 2500 nM.
Regarding `Cc1cnc(CNC(=O)C(=O)[C@@H](Cc2ccccc2)NC(=O)[C@@H](C)NC(=O)C2CCC(F)(F)CC2)s1` [Compound 356], the concentration for half-maximal inhibition (IC50) (values in nM) was 43.1 ± 0.1 nM.
Consider `C[C@@H](NC(=O)C1CCC(F)(F)CC1)C(=O)N[C@H](Cc1ccccc1)C(=O)C(=O)NCc1cscn1` [Compound 357], for which the IC50 (values in nM) stood at 22.3 ± 0.9 nM.
The same measure, in the same setting: to `CCC[C@@H](NC(=O)[C@@H](C)NC(=O)C1CCC(F)(F)CC1)C(=O)C(=O)NCc1ccccn1` [Compound 358] belongs 93.2 ± 1.1 nM.
For the molecule `C[C@@H](NC(=O)C1CCC(F)(F)CC1)C(=O)N[C@H](Cc1ccc(F)cc1)C(=O)C(=O)NCc1ccccn1` [Compound 359], where the note is “values in nM”, the IC50 was determined as 36.4 ± 1.9 nM.
The same measure, in the same setting: to `C[C@@H](NC(=O)C1CCC(F)(F)CC1)C(=O)N[C@H](Cc1cccc(F)c1)C(=O)C(=O)NCc1ccccn1` [Compound 360] belongs 31 ± 3.9 nM; to `C[C@@H](NC(=O)C1CCC(F)(F)CC1)C(=O)N[C@H](Cc1ccccc1F)C(=O)C(=O)NCc1ccccn1` [Compound 361], 27.2 ± 2.8 nM; to `C[C@@H](NC(=O)CC1CC(F)(F)C1)C(=O)N[C@H](Cc1ccco1)C(=O)C(=O)NCc1ccccn1` [Compound 364], 75.1 ± 0.1 nM.
On to `C[C@@H](NC(=O)C1CCC(F)(F)CC1)C(=O)N[C@H](CC1CCCCC1)C(=O)C(=O)NCc1ccccn1` [Compound 365], for which the IC50 (values in nM) was found to be 23.1 ± 1 nM.
On to `C[C@@H](NC(=O)C1C[C@@H]2[C@H](C1)C2(F)F)C(=O)N[C@H](Cc1ccco1)C(=O)C(=O)NCc1ccccn1` (stereo partly drawn) [Compound 366], for which, under “values in nM”, the IC50 came out at 64.6 ± 0.7 nM.
Take `C[C@@H](NC(=O)C1CCC(F)(F)CC1)C(=O)N[C@H](Cc1ccco1)C(=O)C(=O)NCc1nccs1` [Compound 367]: the IC50 (values in nM) turned out to be 105 ± 10.5 nM.
Turning to `C[C@@H](NC(=O)CC1CC1(F)F)C(=O)N[C@H](Cc1ccco1)C(=O)C(=O)NCc1nccs1` (stereo partly drawn) [Compound 368], the IC50 (values in nM) is 197 ± 14 nM.
Turning to `C[C@@H](NC(=O)C1CCCCCC1)C(=O)N[C@H](Cc1ccccc1)C(=O)C(=O)NCc1nccs1` [Compound 370], for the setting “values in nM”, the IC50 was 14.8 ± 0.7 nM.
For the molecule `C[C@@H](NC(=O)C1CC2CCC1C2)C(=O)N[C@H](Cc1ccccc1)C(=O)C(=O)NCc1nccs1` (stereo partly drawn) [Compound 371], where the note is “values in nM”, the IC50 worked out at 31.7 ± 2.6 nM.
On to `C[C@@H](NC(=O)C1CC12CCC(F)(F)CC2)C(=O)N[C@H](Cc1ccccc1)C(=O)C(=O)NCc1nccs1` (stereo partly drawn) [Compound 372], for which the IC50 (values in nM) came to 10.6 ± 0.4 nM.
For `C[C@@H](NC(=O)CC1CCC(F)(F)CC1)C(=O)N[C@H](Cc1ccccc1)C(=O)C(=O)NCc1nccs1` [Compound 373], under “values in nM”, the IC50 is 16 ± 0.8 nM.
For `C[C@@H](NC(=O)C1(F)CCCCC1)C(=O)N[C@H](Cc1ccccc1)C(=O)C(=O)NCc1nccs1` [Compound 374], the IC50 (values in nM) was 20.8 ± 1.6 nM.
The same measure, in the same setting: to `C[C@@H](NC(=O)CC1CC1(F)F)C(=O)N[C@H](Cc1ccccc1)C(=O)C(=O)NCc1nccs1` (stereo partly drawn) [Compound 376] belongs 35.2 ± 3.6 nM.
